These results are taken from PubChem BioAssay AID1329 (NMMLSC, 2008).

The structures appear in SMILES notation. The source made the active and inactive calls. The rule behind the calls is not given here.

Chain of Induced myeloid leukemia cell differentiation protein Mcl-1 (Homo sapiens) (Q07820 whole entry, looked up): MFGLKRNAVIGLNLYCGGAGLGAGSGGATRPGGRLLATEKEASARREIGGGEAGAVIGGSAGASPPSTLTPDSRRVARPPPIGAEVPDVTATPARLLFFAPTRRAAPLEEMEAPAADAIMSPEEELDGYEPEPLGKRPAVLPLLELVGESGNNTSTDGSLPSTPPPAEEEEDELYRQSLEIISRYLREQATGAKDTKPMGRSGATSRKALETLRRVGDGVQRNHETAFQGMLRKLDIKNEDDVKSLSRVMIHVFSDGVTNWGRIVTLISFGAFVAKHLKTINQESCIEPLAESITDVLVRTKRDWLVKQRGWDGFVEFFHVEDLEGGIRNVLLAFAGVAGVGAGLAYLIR

This assay has as its target Induced myeloid leukemia cell differentiation protein Mcl-1 (Homo sapiens) (UniProt Q07820). Description: modulators of Bim peptide binding to Mcl-1, dose response, biochemical, bead-based flow cytometry, multiplexed, human (AID 1329). To be noted: Bim peptide-Mcl-1 binding, MCF. (Flow cytometry measures light scatter and fluorescence of single cells or particles in a stream.)
As to `O=C(COC(=O)CCCN=C1NS(=O)(=O)c2ccccc21)NC(=O)NC1CCCC1`, the percent span entry was “inactive”.

Regarding `O=C(O)c1ccccc1NSc1ccccc1[N+](=O)[O-]`, the percent span entry was “inactive”.

For `COc1ccc(-c2csc(NC(=O)/C(N=Nc3ccccc3)=C(\C)O)n2)cc1`, the percent span entry is “inactive”.

Take `Cc1ccc(C)n1-c1cccc(C(=O)O)c1`: the percent span result was “inactive”.

Regarding `CN1/C(=C\C(=O)Nc2ccc(Cl)cc2)C(C)(C)c2ccccc21`, the percent span result is “inactive”.

In the case of `Cc1cccc(-n2c(O)c(/C=N/N3CCOCC3)c(=O)[nH]c2=S)c1`, the percent span entry was “inactive”.

On to `COc1cc(N=c2ssnc2Cl)cc(OC)c1`, for which the percent span entry is “inactive”.

With `CNC(=O)CC1C(=O)N(Cc2ccccc2)C(=S)N1NC(=O)c1cccc(F)c1` (centres undefined), the percent span entry was “inactive”.

With `c1ccc(-c2nc(N3CCCCCC3)c3ccccc3n2)nc1`, the percent span result was “inactive”.

For the molecule `OC(COc1ccc2cc(Br)ccc2c1)CN1CCOCC1` (centres undefined), the percent span entry is “inactive”.

`Cc1ccc(NS(=O)(=O)c2cc(NC(=O)c3ccc4c(c3)NC(=O)CS4)ccc2C)c(C)c1`: the percent span result is “inactive”.

On to `COc1ccc(C(=O)/C=C/c2cc(OC)c(O)c(OC)c2)c(F)c1`, for which the percent span result was “inactive”.

In the case of `Cc1nn(-c2ccc(Cl)cc2)c(Cl)c1/C=C(\C#N)C(N)=O`, the percent span result was “inactive”.

For the molecule `Cn1c(=O)[nH]c(=O)c2c1nc(N1CCOCC1)n2CCSc1nc2ccccc2[nH]1`, the percent span result is “inactive”.

Consider `Cc1ccc(-c2cc(-c3ccc(Cl)cc3)c(C#N)c(N)n2)o1`, for which the percent span entry is “inactive”.

With `CCNCc1cc(Br)c(OCC(=O)Nc2ccccc2)c(OC)c1`, the percent span result was “inactive”.

Turning to `BrC(=C\c1ccccc1)/C=N/N1CCN(c2ccccc2)CC1`, the percent span entry was “inactive”.

For `CN1CCN(c2ccc(N)cc2)CC1`, the percent span entry is “inactive”.

Regarding `Cc1ccc(-c2c3c([nH]c(=S)c2C#N)CCCC3)o1`, the percent span entry was “inactive”.

In the case of `N/C(Cc1ccc(Cl)c(Cl)c1)=N\OC(=O)c1cccs1`, the percent span entry was “inactive”.

For `COc1ccc(C(=O)Nc2ccc(NC(=O)c3cccs3)cc2)cc1Cl`, the percent span entry was “inactive”.

With `Cc1ccc(CNc2ccc3c(c2)OCO3)c(C)c1`, the percent span entry is “inactive”.

For `C(=C\c1ccccc1)/CSc1nnc(-c2ccccn2)n1Cc1ccco1`, the percent span entry is “inactive”.

For the molecule `Cc1cccc(-c2nnc3n2N=C(c2ccccc2)CS3)c1`, the percent span entry is “inactive”.

With `O=C(Cn1c(-c2ccccc2)noc1=O)N1CCC(Cc2ccccc2)CC1`, the percent span entry is “inactive”.

Regarding `O=C(O)C1=C[C@H](C2CC2)C[C@H](OCCCCO)O1`, the percent span result was “inactive”.

As for `CCOC(=O)CSC1=NC(=O)/C(=C/c2ccc(OC)cc2)S1`, the percent span result is “inactive”.

Regarding `COc1cccc(/C=N/Nc2nn3cnnc3c3ccccc23)c1`, the percent span result is “inactive”.

Take `COc1ccc(CC(=O)Nc2ccc(-c3nc4cc(C)ccc4o3)c(O)c2)cc1OC`: the percent span result was “inactive”.

As for `COc1ccc(CC(=O)Nc2ccccc2Oc2ccccc2)cc1`, the percent span entry is “inactive”.

For the molecule `Cc1c(NC2=C(Cl)C(=O)N(c3ccccc3Cl)C2=O)c(=O)n(-c2ccccc2)n1C`, the percent span result was “inactive”.

Take `O=C(O)c1ccc(NC2=C/C(=N/S(=O)(=O)c3ccccc3)c3ccccc3C2=O)cc1`: the percent span result was “inactive”.

As to `CC(C(=O)Nc1ccc([N+](=O)[O-])cc1)N1CCN(C/C=C/c2ccccc2)CC1` (centres undefined), the percent span result was “inactive”.

For the molecule `Cc1[nH]c2ccccc2c1C(=O)COC(=O)c1c(-c2c(F)cccc2Cl)noc1C`, the percent span result is “inactive”.

Consider `c1cncc(-c2nnc3n2N=C(c2cccs2)CS3)c1`, for which the percent span result was “inactive”.

On to `Cc1cc[n+]2cc(-c3cccc([N+](=O)[O-])c3)c(-c3cccc([N+](=O)[O-])c3)cc2c1`, for which the percent span result was “inactive”.

As to `Cc1cc(N2CCN(C)CC2)nc2ccc(NC(=S)N3CCC4(CC3)OCCO4)cc12`, the percent span result is “inactive”.

Take `CCOC(=O)c1c(NC(C)=O)sc2c(O)c(Br)cc(Br)c12`: the percent span result is “inactive”.

In the case of `NC(=O)c1c(NC(=O)C2CCCO2)sc2c1CCCC2` (centres undefined), the percent span entry was “inactive”.

As for `Cc1onc(-c2ccccc2Cl)c1C(=O)Nc1nn[nH]n1`, the percent span entry is “inactive”.

`Cn1c(CCNC(=O)C2CCCCC2)nc2cc(NC(=O)c3cccs3)ccc21`: the percent span entry is “inactive”.

In the case of `CC1=CC(=O)c2c(O)ccc(O)c2C1=O`, the percent span result is “inactive”.

Consider `C/C(=N/NC(=O)c1cc(O)c(O)c(O)c1)c1ccc([N+](=O)[O-])cc1`, for which the percent span entry was “inactive”.

Consider `Cc1ccc(C)c(N2CCN(C(=S)Nc3ccc4nc(N5CCN(C)CC5)cc(C)c4c3)CC2)c1`, for which the percent span entry was “inactive”.

As to `O=C1CCc2cc(S(=O)(=O)NCCCC(=O)N3CCN(Cc4ccc5c(c4)OCO5)CC3)ccc2N1`, the percent span entry is “inactive”.

In the case of `Cc1ccc(-c2cc(-c3ccccc3)c(C#N)c(N)n2)o1`, the percent span result was “inactive”.

As to `Cc1ccc(NC(=O)CSc2nc3ccccc3c(=O)n2CCCN2CCCCC2)cc1Cl`, the percent span entry is “inactive”.

Take `Cc1cc(C)nc(/N=C(\N)N2CCc3ccccc32)n1`: the percent span result was “inactive”.

For `N#Cc1cc(-c2ccccc2)nn1-c1ccccc1`, the percent span result is “inactive”.

Take `O=C1C(=O)c2ccc(-c3ccccc3)cc2-c2ccccc21`: the percent span result is “inactive”.

With `CN1C2C=C3C(C#N)=C(N)C(C#N)(C#N)[C@@H](c4ccsc4)[C@@H]3C1CC2` (some centres undefined), the percent span entry was “inactive”.

As for `Cc1ccc(C(=O)C(C(=O)/C=C/c2ccccc2)=C2SCCCS2)cc1`, the percent span result is “inactive”.

`Cc1cc(N2CCN(C)CC2)nc2ccc(NC(=S)N3CCN(c4ccc(F)cc4)CC3)cc12`: the percent span entry is “inactive”.

With `CCOc1cc(/C=C2/N=C(C)C(C(=O)OC)=C2O)ccc1O`, the percent span result was “inactive”.

As for `Cc1cc(C)n(CC(=O)N/N=C/c2cccc([N+](=O)[O-])c2)n1`, the percent span result is “inactive”.

For `O=C(Nc1cccc(Cl)c1)Nc1ccnc(-c2cccnc2)n1`, the percent span entry was “inactive”.

Turning to `O=c1c2c(-c3ccccc3)csc2nc2c3ccccc3c(NCCN3CCOCC3)nn12`, the percent span result is “inactive”.

As to `CCOc1ccc(-n2cc(-c3ccc(OC)c(OC)c3)[nH]c2=S)cc1`, the percent span result was “inactive”.

Consider `CCCCOc1ccc(Cc2c(Cl)nc(SC)nc2N2CCOCC2)cc1`, for which the percent span result is “inactive”.

Consider `O=C(COc1ccccc1)Nc1ccc2c(c1)Cc1cc(NC(=O)COc3ccccc3)ccc1-2`, for which the percent span entry was “inactive”.

With `O=C(C1=NN(c2ccccc2)C2C(=O)N(c3ccccc3)C(=O)C12)c1ccccc1` (centres undefined), the percent span entry was “inactive”.

As for `CC1(C(=O)N(CC(=O)NC2CCCC2)Cc2ccco2)CC(=O)N=C2C=CC=CN21` (centres undefined), the percent span entry is “inactive”.

Turning to `CC(C)(C)NC(=O)COc1ccc(CNc2ccc3[nH]c(=O)[nH]c3c2)cc1`, the percent span result is “inactive”.

`COc1cc(/C=N/Nc2nc3c(c(=O)n(C)c(=O)n3C)n2Cc2ccccc2)ccc1OC(=O)c1ccco1`: the percent span entry was “inactive”.
